Measurements published in ChEMBL document CHEMBL1938277, “N-acylaminophenothiazines: neuroprotective agents displaying multifunctional activities for a potential treatment of Alzheimer's disease” (Eur J Med Chem, 2011).

How the values were obtained:
SH-SY5Y [1] = assay: Neuroprotective activity against H2O2-induced cell death in human SH-SY5Y cells assessed as LDH release at 1 uM incubated for 24 hrs before H2O2 challenge measured after 24 hrs relative to control; type: functional
SH-SY5Y [2] = assay: Neuroprotective activity against H2O2-induced cell death in human SH-SY5Y cells assessed as LDH release at 3 uM incubated for 24 hrs before H2O2 challenge measured after 24 hrs relative to control; type: functional
SH-SY5Y [3] = assay: Neuroprotective activity against H2O2-induced cell death in human SH-SY5Y cells assessed as LDH release at 10 uM incubated for 24 hrs before H2O2 challenge measured after 24 hrs relative to control; type: functional
SH-SY5Y [4] = assay: Neuroprotective activity against H2O2-induced cell death in human SH-SY5Y cells assessed as LDH release at 30 uM incubated for 24 hrs before H2O2 challenge measured after 24 hrs relative to control; type: functional
Cholinesterase = Cholinesterase (Equus caballus, UniProt P81908)
Description: Inhibition of BuChE in horse serum using butyrylthiocholine as substrate by Ellman method

in vitro = conditions: PAMPA
Description: Permeability of the compound by PAMPA assay

Acetylcholinesterase = target: T1, Acetylcholinesterase (Bos taurus, UniProt P23795); assay: biochemical
T1 sequence (P23795 whole entry): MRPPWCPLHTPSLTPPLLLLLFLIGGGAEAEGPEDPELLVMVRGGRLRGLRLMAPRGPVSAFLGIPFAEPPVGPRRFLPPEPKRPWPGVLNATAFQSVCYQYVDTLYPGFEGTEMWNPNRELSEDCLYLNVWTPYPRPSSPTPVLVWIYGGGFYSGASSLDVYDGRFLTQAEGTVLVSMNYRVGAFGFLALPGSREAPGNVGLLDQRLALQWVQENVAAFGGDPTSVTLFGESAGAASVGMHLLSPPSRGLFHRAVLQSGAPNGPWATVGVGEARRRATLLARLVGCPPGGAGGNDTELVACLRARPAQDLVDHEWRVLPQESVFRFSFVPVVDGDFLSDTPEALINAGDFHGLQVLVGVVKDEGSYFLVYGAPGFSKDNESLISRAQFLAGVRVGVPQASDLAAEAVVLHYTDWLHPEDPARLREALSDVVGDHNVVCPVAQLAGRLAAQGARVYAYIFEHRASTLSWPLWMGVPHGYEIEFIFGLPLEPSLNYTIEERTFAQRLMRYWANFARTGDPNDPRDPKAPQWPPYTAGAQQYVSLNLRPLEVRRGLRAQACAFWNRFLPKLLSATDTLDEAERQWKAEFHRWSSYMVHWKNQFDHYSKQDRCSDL
Description: Inhibition of AChE in bovine erythrocytes using acetylthiocholine as substrate by Ellman method

SH-SY5Y [5] = assay: Neuroprotective activity against rotenone/oligomycin A-induced cell death in human SH-SY5Y cells assessed as LDH release at 0.3 uM treated 24 hrs before rotenone/oligomycin A challenge measured after 24 hrs relative to control; type: functional
SH-SY5Y [6] = assay: Neuroprotective activity against rotenone/oligomycin A-induced cell death in human SH-SY5Y cells assessed as LDH release at 1 uM treated 24 hrs before rotenone/oligomycin A challenge measured after 24 hrs relative to control; type: functional
SH-SY5Y [7] = assay: Neuroprotective activity against rotenone/oligomycin A-induced cell death in human SH-SY5Y cells assessed as LDH release at 3 uM treated 24 hrs before rotenone/oligomycin A challenge measured after 24 hrs relative to control; type: functional
SH-SY5Y [8] = assay: Neuroprotective activity against rotenone/oligomycin A-induced cell death in human SH-SY5Y cells assessed as LDH release at 0.3 uM after 24 hrs relative to control; type: functional
SH-SY5Y [9] = assay: Neuroprotective activity against rotenone/oligomycin A-induced cell death in human SH-SY5Y cells assessed as LDH release at 1 uM after 24 hrs relative to control; type: functional
SH-SY5Y [10] = assay: Neuroprotective activity against rotenone/oligomycin A-induced cell death in human SH-SY5Y cells assessed as LDH release at […] after 24 hrs relative to control; type: functional
SH-SY5Y [11] = assay: Antioxidant activity in human SH-SY5Y cells assessed as sequestering of rotenone/oligomycin A-induced mitochondrial free radicals at 0.3 uM after 120 mins by DCFH-DA assay; type: functional
SH-SY5Y [12] = assay: Neuroprotective activity against okadaic acid-induced cell death in human SH-SY5Y cells assessed as LDH release at 0.3 uM treated 24 hrs before okadaic acid challenge measured after 24 hrs relative to control; type: functional
SH-SY5Y [13] = assay: Neuroprotective activity against okadaic acid-induced cell death in human SH-SY5Y cells assessed as LDH release at 1 uM treated 24 hrs before okadaic acid challenge measured after 24 hrs relative to control; type: functional
SH-SY5Y [14] = assay: Neuroprotective activity against okadaic acid-induced cell death in human SH-SY5Y cells assessed as LDH release at 3 uM treated 24 hrs before okadaic acid challenge measured after 24 hrs relative to control; type: functional
SH-SY5Y [15] = assay: Neuroprotective activity against amyloid beta 1 to 42-induced cell death in human SH-SY5Y cells assessed as increase in cell viability at 0.3 uM pre-incubated for 24 hrs before amyloid beta 1 to 42 challenge measured after 24 hrs by MTT assay relative to control; type: functional
SH-SY5Y [16] = assay: Neuroprotective activity against amyloid beta 1 to 42-induced cell death in human SH-SY5Y cells assessed as increase in cell viability at 1 uM pre-incubated for 24 hrs before amyloid beta 1 to 42 challenge measured after 24 hrs by MTT assay relative to control; type: functional
SH-SY5Y [17] = assay: Neuroprotective activity against amyloid beta 1 to 42-induced cell death in human SH-SY5Y cells assessed as increase in cell viability at 3 uM pre-incubated for 24 hrs before amyloid beta 1 to 42 challenge measured after 24 hrs by MTT assay relative to control; type: functional
SH-SY5Y [18] = assay: Cytotoxicity against human SH-SY5Y cells; type: cell-based
SH-SY5Y [19] = assay: Neuroprotective activity against FPL64176-induced toxicity in human SH-SY5Y cells assessed as increase in cell viability at 0.3 uM treated 24 hrs before FPL64176 challenge measured after 24 hrs by MTT assay relative to control; type: functional
SH-SY5Y [20] = assay: Neuroprotective activity against FPL64176-induced toxicity in human SH-SY5Y cells assessed as increase in cell viability at 1 uM treated 24 hrs before FPL64176 challenge measured after 24 hrs by MTT assay relative to control; type: functional
SH-SY5Y [21] = assay: Neuroprotective activity against FPL64176-induced toxicity in human SH-SY5Y cells assessed as increase in cell viability at 10 uM treated 24 hrs before FPL64176 challenge measured after 24 hrs by MTT assay relative to control; type: functional
SH-SY5Y [22] = assay: Neuroprotective activity against rotenone/oligomycin A-induced cell death in human SH-SY5Y cells assessed as LDH release at 0.1 uM treated 24 hrs before rotenone/oligomycin A challenge measured after 24 hrs relative to control; type: functional
SH-SY5Y [23] = assay: Neuroprotective activity against rotenone/oligomycin A-induced cell death in human SH-SY5Y cells assessed as LDH release at 0.1 uM after 24 hrs relative to control; type: functional
SH-SY5Y [24] = assay: Neuroprotective activity against amyloid beta 1 to 42-induced cell death in human SH-SY5Y cells assessed as increase in cell viability at 10 nM pre-incubated for 24 hrs before amyloid beta 1 to 42 challenge measured after 24 hrs by MTT assay relative to control; type: functional
SH-SY5Y [25] = assay: Inhibition of potassium chloride-induced cytosolic calcium level in human SH-SY5Y cells at 10 uM treated after 10 mins before potassium chloride challenge by Fluo-4/AM fluorescence assay; type: functional

Chain of Cholinesterase (P81908 whole entry): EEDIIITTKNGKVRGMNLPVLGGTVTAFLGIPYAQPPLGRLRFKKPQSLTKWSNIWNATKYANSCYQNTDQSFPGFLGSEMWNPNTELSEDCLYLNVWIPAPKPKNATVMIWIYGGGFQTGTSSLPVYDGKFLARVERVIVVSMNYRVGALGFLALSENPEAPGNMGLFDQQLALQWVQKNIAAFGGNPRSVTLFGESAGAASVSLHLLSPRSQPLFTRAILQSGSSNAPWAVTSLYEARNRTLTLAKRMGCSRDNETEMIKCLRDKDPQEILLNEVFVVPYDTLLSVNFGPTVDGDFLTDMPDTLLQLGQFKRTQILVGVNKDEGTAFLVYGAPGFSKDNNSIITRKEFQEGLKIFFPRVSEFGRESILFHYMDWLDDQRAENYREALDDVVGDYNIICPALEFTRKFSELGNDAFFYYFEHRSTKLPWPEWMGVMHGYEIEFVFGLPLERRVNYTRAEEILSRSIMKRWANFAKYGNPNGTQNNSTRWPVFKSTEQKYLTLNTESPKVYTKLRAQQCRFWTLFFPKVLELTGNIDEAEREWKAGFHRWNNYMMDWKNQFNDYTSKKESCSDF

| SMILES | Activity (SH-SY5Y [1]) [%] | Activity (SH-SY5Y [2]) [%] | Activity (SH-SY5Y [3]) [%] | Activity (SH-SY5Y [4]) [%] | IC50 (Cholinesterase) [nM] | Papp (in vitro) [×10⁻⁶ cm/s] | IC50 (Acetylcholinesterase) [µM] | further results |
| --- | --- | --- | --- | --- | --- | --- | --- | --- |
| CN1CCN(CCC(=O)NN2c3ccccc3Sc3cc(Cl)ccc32)CC1 | 43.9 | 56.6 | 68.6 | 72.8 | 900 | 13.8 | > 100 |  |
| CN(C)CC(=O)NN1c2ccccc2Sc2ccccc21 | 30.5 | 26.3 | 38.6 | 22 | 1700 | 18.3 | > 100 |  |
| CN(C)CC(=O)NN1c2ccccc2Sc2ccc(Cl)cc21 | 15.6 | 29.5 | 42.6 | 23.2 | 7100 | 13.5 | > 100 |  |
| CN(C)CC(=O)NN1c2ccccc2Sc2cc(Cl)ccc21 | 59.8 | 62.7 | 28.2 | 9.7 | 5000 | 15.5 | > 100 |  |
| O=C(CN1CCCCC1)NN1c2ccccc2Sc2ccccc21 | 27.2 | 26.1 | 9.7 | 10.1 | 400 | 16.4 | > 100 |  |
| O=C(CN1CCCCC1)NN1c2ccccc2Sc2cccc(Cl)c21 | 1.1 | 9.9 | 0 | 32.6 | 2200 | 13.9 | > 100 |  |
| O=C(CN1CCCCC1)NN1c2ccccc2Sc2ccc(Cl)cc21 | 66.1 | 80.8 | 73.8 | 76.4 | > 100000 | 9.1 | > 100 |  |
| O=C(CN1CCCCC1)NN1c2ccccc2Sc2cc(Cl)ccc21 | 25.4 | 55.2 | 44.9 | 17.8 | 700 | 14.7 | > 100 |  |
| O=C(CN1CCCC1)NN1c2ccccc2Sc2ccccc21 | 13.1 | 35.6 | 18.9 | 23.3 | 800 | 10.5 | > 100 |  |
| O=C(CN1CCCC1)NN1c2ccccc2Sc2ccc(Cl)cc21 | 17.4 | 48.9 | 54.8 | 55.6 | 4300 | 11.2 | > 100 |  |
| O=C(CN1CCCC1)NN1c2ccccc2Sc2cc(Cl)ccc21 | 54.6 | 57.7 | 79.9 | 69.5 | 1000 | 14.9 | > 100 | Activity (SH-SY5Y [5]): 55%; Activity (SH-SY5Y [6]): 51.8%; Activity (SH-SY5Y [7]): 58.9%; Activity (SH-SY5Y [8]): 28.6%; Activity (SH-SY5Y [9]): 44.1%; Activity (SH-SY5Y [10]): 44.3%; Activity (SH-SY5Y [11]): 14.7%; Activity (SH-SY5Y [12]): 28.3%; Activity (SH-SY5Y [13]): 32%; Activity (SH-SY5Y [14]): 29%; Activity (SH-SY5Y [15]): 91.3%; Activity (SH-SY5Y [16]): 81.3%; Activity (SH-SY5Y [17]): 13.6%; Activity (SH-SY5Y [18]): Non-toxic; Activity (SH-SY5Y [19]): 39.8%; Activity (SH-SY5Y [20]): 44.5%; Activity (SH-SY5Y [21]): 36.3% |
| CC(=O)NN1c2ccccc2Sc2cc(Cl)ccc21 | 40.3 | 52.2 | 37.2 | 21.2 | > 100000 | 9.8 | > 100 |  |
| O=C(CCN1CCCC1)NN1c2ccccc2Sc2ccccc21 | 90.1 | 81.4 | 88 | 72.5 | 1400 | 17.3 | > 100 | Activity (SH-SY5Y [22]): 58.8%; Activity (SH-SY5Y [5]): 42.4%; Activity (SH-SY5Y [6]): 16.5%; Activity (SH-SY5Y [23]): 66.1%; Activity (SH-SY5Y [8]): 63.7%; Activity (SH-SY5Y [9]): 52.6%; Activity (SH-SY5Y [11]): 23.8%; Activity (SH-SY5Y [18]): Non-toxic |
| O=C(CCN1CCCC1)NN1c2ccccc2Sc2cc(Cl)ccc21 | 34.4 | 57.2 | 29.4 | 49 | 3000 | 16.4 | > 100 |  |
| COc1ccc2c(c1)Sc1ccccc1N2NC(=O)CCN1CCCC1 | 17.8 | 11.8 | 0 | 0 | 800 | 8.7 | > 100 |  |
| CN1CCN(CCC(=O)NN2c3ccccc3Sc3ccccc32)CC1 | 82.9 | 34.5 | 22.8 | 6.3 | 1300 | 17 | > 100 |  |
| COc1ccc2c(c1)Sc1ccccc1N2NC(=O)CCN1CCN(C)CC1 | 49.5 | 42.1 | 66.5 | 55.1 | 2000 | 16.8 | > 100 | Activity (SH-SY5Y [22]): 37.2%; Activity (SH-SY5Y [5]): 49.4%; Activity (SH-SY5Y [6]): 50.8%; Activity (SH-SY5Y [23]): 66.3%; Activity (SH-SY5Y [8]): 57.9%; Activity (SH-SY5Y [9]): 65.4%; Activity (SH-SY5Y [11]): 24.2%; Activity (SH-SY5Y [18]): Non-toxic |
| CN1CCN(CCC(=O)NN2c3ccccc3Sc3cc([N+](=O)[O-])ccc32)CC1 | 41.3 | 46.5 | 46.2 | 31.7 | 1500 | 14.6 | > 100 |  |
| COc1ccc2c3c1O[C@H]1C[C@@H](O)C=C[C@@]31CCN(C)C2 [GALANTAMINE] |  |  |  |  |  |  |  | Activity (SH-SY5Y [12]): 36% |
| COc1ccc2[nH]cc(CCNC(C)=O)c2c1 [MELATONIN] |  |  |  |  |  |  |  | Activity (SH-SY5Y [24]): 72% |
| COC(=O)C1=C(C)NC(C)=C(C(=O)OC)C1c1ccccc1[N+](=O)[O-] [NIFEDIPINE] |  |  |  |  |  |  |  | inhibition at 10 µM (SH-SY5Y [25]): 45% |
| Cc1c(C)c2c(c(C)c1O)CCC(C)(C(=O)O)O2 (stereo unspecified) [TROLOX] |  |  |  | 57.7 |  |  |  | Activity (SH-SY5Y [7]): 65.1%; Activity (SH-SY5Y [10]): 63.7%; Activity (SH-SY5Y [11]): 27.8% |
